16 compounds from ChEMBL document CHEMBL3085697, “Design and synthesis of aryl sulfonamide-based nonsteroidal mineralocorticoid receptor antagonists” (Bioorg Med Chem Lett, 2013) can be followed below.

By logD is commonly meant lipophilicity at a set pH, counting ionised and neutral species. A higher logD goes with a more lipophilic compound. As usually defined, the IC50 is the concentration needed to halve the response being measured. Low values mean higher potency, high ones lower potency.

Series [1] is described as follows: Apparent intrinsic clearance in human liver microsomes. It counts as ADME. Conditions: read-out: CLH(app). In general terms: Liver microsomes are vesicles of endoplasmic reticulum, rich in cytochrome P450 enzymes.
Series [2] is described as follows: Lipophilicity, log D of the compound. Conditions: octanol/water. It counts as physicochemical.
Series [3] has as its target T1, Mineralocorticoid receptor (Homo sapiens, UniProt P08235).
T1 sequence (P08235 whole entry): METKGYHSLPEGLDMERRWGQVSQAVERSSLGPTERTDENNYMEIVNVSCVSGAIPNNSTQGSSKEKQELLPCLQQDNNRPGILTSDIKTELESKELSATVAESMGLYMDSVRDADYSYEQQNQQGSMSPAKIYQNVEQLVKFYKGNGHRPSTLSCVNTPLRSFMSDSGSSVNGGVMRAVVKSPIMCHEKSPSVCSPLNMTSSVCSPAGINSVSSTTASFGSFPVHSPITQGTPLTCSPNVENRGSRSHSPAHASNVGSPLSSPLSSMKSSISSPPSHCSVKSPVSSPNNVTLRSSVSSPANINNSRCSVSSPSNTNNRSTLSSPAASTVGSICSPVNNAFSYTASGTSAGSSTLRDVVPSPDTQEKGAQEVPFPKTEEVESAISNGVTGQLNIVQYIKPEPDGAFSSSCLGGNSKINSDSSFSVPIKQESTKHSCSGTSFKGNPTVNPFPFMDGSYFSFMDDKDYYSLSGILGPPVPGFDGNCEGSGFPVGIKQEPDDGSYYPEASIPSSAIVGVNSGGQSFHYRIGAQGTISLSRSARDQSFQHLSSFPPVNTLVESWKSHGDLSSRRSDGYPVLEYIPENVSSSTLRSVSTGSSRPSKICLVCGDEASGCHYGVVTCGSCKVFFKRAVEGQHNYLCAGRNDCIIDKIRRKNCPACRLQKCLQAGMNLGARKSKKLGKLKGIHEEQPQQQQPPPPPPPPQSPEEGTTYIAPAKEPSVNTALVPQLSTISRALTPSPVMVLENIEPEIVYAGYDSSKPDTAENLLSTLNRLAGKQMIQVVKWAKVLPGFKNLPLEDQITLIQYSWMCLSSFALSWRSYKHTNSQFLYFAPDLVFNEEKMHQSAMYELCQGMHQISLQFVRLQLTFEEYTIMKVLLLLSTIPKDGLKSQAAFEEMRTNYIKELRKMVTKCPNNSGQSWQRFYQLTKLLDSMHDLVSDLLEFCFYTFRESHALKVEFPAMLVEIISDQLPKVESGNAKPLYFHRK
The series can be described thus: Displacement of [3H]aldosterone from GST-tagged human mineralocorticoid receptor ligand binding domain after 4 hrs by liquid scintillation counting.

For `Cc1noc(C)c1S(=O)(=O)NCc1ccc(-c2ccccc2)cc1`, the microsomal CLint in series [1] worked out at 203 µL/min/mg. Further, in series [2], the logD was 4.1. This compound showed an IC50 in series [3] of 0.356 µM.

Regarding `Cc1noc(C)c1S(=O)(=O)NCc1ccc(-c2ccccc2)s1`, the microsomal CLint in series [1] was 267 µL/min/mg. Moreover, the logD in series [2] was 3.9. Also, the IC50 in series [3] was determined as 0.609 µM.

Turning to `Cc1noc(C)c1S(=O)(=O)NCc1ccc(-c2cccc(C#N)c2)cc1`, the logD in series [2] was determined as 3.3. This compound also gave an IC50 in series [3] of 0.04 µM.

In the case of `COc1ccc(C#N)cc1-c1ccc(CNS(=O)(=O)c2c(C)noc2C)cc1`, the microsomal CLint in series [1] is 198 µL/min/mg. The same compound had a log distribution coefficient (logD) in series [2] of 3.2. The compound also had an IC50 in series [3] of 0.045 µM.

On to `Cc1noc(C)c1S(=O)(=O)NCc1ccc(-c2cccc(C(N)=O)c2)cc1`, for which the logD in series [2] turned out to be 2.4. In series [3], this compound gave an IC50 of 2.03 µM.

`Cc1noc(C)c1S(=O)(=O)NCc1ccc(-c2cccc(NS(C)(=O)=O)c2)cc1`: in series [1], the microsomal CLint stood at 39 µL/min/mg. In addition, the logD in series [2] amounted to 2.9. Besides, in series [3], the IC50 was determined as 1.39 µM.

As to `Cc1noc(C)c1S(=O)(=O)NCc1ccc(-c2cccnc2)cc1`, in series [1], the microsomal CLint is 86 µL/min/mg. In series [2], this compound registered a logD of 2.4. The IC50 in series [3] turned out to be 1.53 µM.

With `Cc1noc(C)c1S(=O)(=O)NCc1ccc(-c2cncc(C#N)c2)cc1`, in series [1], the microsomal CLint came out at 25 µL/min/mg. For the same compound, the logD in series [2] was 1.9. The same compound showed an IC50 in series [3] of 1.97 µM.

Consider `Cc1noc(C)c1S(=O)(=O)NCc1ccc(-n2ccnc2C)cc1`, for which, in series [1], the microsomal CLint was found to be 17 µL/min/mg. For the same compound, in series [2], the pH-dependent lipophilicity (logD) amounted to 1.5. The compound also returned an IC50 in series [3] of 4.7 µM.

`Cc1cc(C)c(S(=O)(=O)NCc2ccc(-n3ccnc3C)cc2)c(C)c1`: the microsomal CLint in series [1] was more than 320 µL/min/mg. In series [2], this compound returned a logD of 3.2. The same compound gave an IC50 in series [3] of 0.121 µM.

Turning to `Cc1ccccc1S(=O)(=O)NCc1ccc(-n2ccnc2C)cc1`, the microsomal CLint in series [1] worked out at 53 µL/min/mg. The compound further came in with a logD in series [2] of 2.3. The same compound gave an IC50 in series [3] of 1.21 µM.

For the compound `Cc1nccn1-c1ccc(CNS(=O)(=O)c2ccccc2Cl)cc1`, in series [1], the microsomal CLint amounted to 41 µL/min/mg. Besides, in series [2], the pH-dependent lipophilicity (logD) turned out to be 2. In series [3], the IC50 was 0.342 µM.

For `Cc1nccn1-c1ccc(CNS(=O)(=O)c2ccccc2F)cc1`, the microsomal CLint in series [1] is 18 µL/min/mg. The logD in series [2] is 1.8. This compound returned an IC50 in series [3] of 1.84 µM.

Turning to `Cc1nccn1-c1ccc(CNS(=O)(=O)c2ccc(F)cc2F)cc1`, the microsomal CLint in series [1] turned out to be 28 µL/min/mg. The same compound had a pH-dependent lipophilicity (logD) in series [2] of 2. Further, the IC50 in series [3] worked out at 2.09 µM.

As to `Cc1nccn1-c1ccc(CNS(=O)(=O)c2cc(F)ccc2F)cc1`, the microsomal CLint in series [1] amounted to 30 µL/min/mg. For the same compound, the logD in series [2] worked out at 2.1. Further, the IC50 in series [3] worked out at 0.627 µM.

Take `Cc1nccn1-c1ccc(CNS(=O)(=O)c2cc(F)ccc2F)cc1F`: the microsomal CLint in series [1] was 49 µL/min/mg. In series [2], this compound yielded a logD of 2.4. Also, the IC50 in series [3] was determined as 0.168 µM.
